Reference: patent US20220133761A1, “NEUTROPHIL APOPTOSIS INDUCED BY NANOPARTICLES FOR TREATING INFLAMMATORY DISEASES” (WASHINGTON STATE UNIVERSITY, priority 2020, published 2022)

Assays:
[1] = test system: heart, liver, spleen, lung and kidney; experiment: Toxicity by histological analysis (H&E staining of major organs); conditions: for tissue or cellular damage in H&E sections of heart, liver, spleen, lung, kidney: 0.2 mg/kg DOX
Protocol: After different treatments (healthy, PBS, 4 mg/kg of free DOX, 0.2 mg/kg of free DOX, DOX-hyd-BSA NPs and DOX-ab-BSA NPs, equal to 0.2 mg/kg of DOX for NPs), mice were sacrificed by carbon dioxide asphyxiation. […] The samples were imaged by a microscope (ZEISS, Observer. Z1, USA).

[2] = test system: LPS-challenged mice; experiment: Survival study in sepsis mouse model (i.p. LPS 50 mg/kg); type: in vivo; conditions: 72 h, 0.2 mg/kg DOX i.v. 4 h after i.p. LPS 50 mg/kg
Protocol: Adult CD-1 mice were i.p. injected with LPS (50 mg/kg) in the mouse sepsis model. 4 hours later, the LPS-challenged mice were grouped randomly (10 mice per group) and treated (i.v.) with PBS, free DOX (0.2 mg/kg), and prodrug DOX-hyd-BSA NPs (equal to 0.2 mg/kg of free DOX). The animals were monitored every 6 h in the first 12 h followed by monitoring mice every 12 h in 72 h.

[3] = test system: differentiated HL-60 cells; experiment: TUNEL apoptosis assay; type: cell-based, human; conditions: CLSM images
Protocol: To further confirm the apoptosis of differentiated HL-60 cells induced by DOX, TUNEL assay was also performed using Cell Meter™ TUNEL (green fluorescence) Apoptosis Assay Kit (AAT Bioquest, Inc.) according to the manufacturer's protocol and the images were taken by a Nikon A1R^+ confocal laser scanning microscope.

[4] = test system: differentiated HL-60 cells (neutrophil-like cells); experiment: In vitro cytotoxicity, CCK-8 assay; type: cell-based, human; conditions: 24 h, different concentrations of DOX
Protocol: Cytotoxic effects of BSA NPs on HL-60 cells were measured by CCK-8 assay. HL-60 cells were plated in 96-well plates (Costar, Corning, N.Y.) at 5,000-10,000 cells/well. After incubation for 24 h, the culture medium was removed and a complete medium with various concentrations of free DOX, BSA and DOX-conjugated BSA NPs was used to incubate cells for 24 h, respectively. 10 μL of the solution cell proliferation reagent (Promega, Madison, Wis.) per well was added. Then, the cell viability was measured by a Synergy Neo fluorescence plate reader (BioTek, Winooski, Vt.) at 490 nm.

[5] = test system: differentiated HL-60 cells; experiment: Apoptosis analysis, Annexin V-FITC / 7AAD staining (flow cytometry, CLSM); type: cell-based, human; conditions: for apoptotic cells by flow cytometry: 24 h, DOX 3 μg/mL; for Annexin V-FITC / 7AAD staining by confocal microscopy: 24 h treatment
Protocol: To investigate the apoptosis of neutrophils induced by DOX, Annexin V-FITC and 7AAD were used to double stain differentiated HL-60 cells. […] The cells were re-suspended in a binding buffer for staining of Annexin V-FITC and 7AAD (emission at 650 nm) according to the manufacturer's protocol (Invitrogen). Stained cells were analyzed using a flow cytometer and imaged by a Nikon A1R^+ confocal laser scanning microscope.

[6] = Serum stability of nanoparticles in PBS with 20% FBS; type: physicochemical; conditions: pH 7.4, incubation for 4 days
Protocol: Particle size and polydispersity indexes (PDI) were measured using Malvern Zetasizer Nano90 (Westborough, Mass.). The samples were incubated in PBS at pH 7.4 for 2 h, and the measurements were conducted in a 1.0 mL quartz cuvette using a diode laser of 633 nm at 25° C. and a scattering angle was fixed at 90°. To evaluate their serum stability, nanoparticles were dispersed in 20% FBS PBS solution (pH 7.4) at a final concentration of 1 mg/mL. Nanoparticle sizes were measured at the predefined time points. Transmission electron microscopy (TEM) of nanoparticles was also performed using a FEI Technai G2 20 Twin TEM (Hillsboro, Oreg.).

[7] = In vitro drug release profile (dialysis, 37 C); type: physicochemical; conditions: pH 5.0-7.4, in 48 h
Protocol: Release profiles of DOX from NPs were studied using dialysis method at 37° C.(33) Briefly, 3 mg of NPs was dispersed in 3 mL (Ve) PBS at different pH, and then was placed in a dialysis bag (MWCO 3500 Da). The dialysis bag was immersed in 47 mL PBS (pH 7.4, 6.5 or 5.0) in a beaker. The beaker was then placed in a 37° C. water bath and stirred at 110 rpm. The samples were drawn at desired time intervals and the drug concentration was measured using UV-Vis absorption. The experiments were carried out in triplicate at each pH value. The accumulative drug release percent (Er) was calculated based on equation (1).
where, mdrug represents the amount of DOX in NPs, V0 was the whole volume of release media (V0=50 mL), Ci represents the concentration of DOX in the ith sample.

[8] = pH-triggered DOX release, UV-Vis of supernatants after 2 h incubation; type: physicochemical; conditions: pH 5.0 to 7.4, 2 h incubation in PBS
Protocol: To confirm the pH-triggered drug release property, BSA NPs, DOX-ab-BSA NPs and DOX-hyd-BSA NPs were incubated in PBS at pH 7.4, 6.5 and 5.0 for 2 h, respectively. After centrifugation, the supernatants were collected to determine DOX concentrations using a UV-Vis spectrometer.

Row | Compound | tissue or cellular damage in H&E sections of heart, liver, spleen, lung, kidney [1] | myocardial damage (vacuolization, myofibril loss) ([1]; high dose 4.0 mg/kg) | mouse survival [2] | cells with co-staining of DOX and TUNEL [3] [%] | cytotoxicity (cell viability) [4] | apoptotic cells by flow cytometry [5] [%] | Annexin V-FITC / 7AAD staining by confocal microscopy [5] | serum stability (aggregation, diameter change) [6] | cumulative DOX release [7] | DOX absorption in supernatant [8] | co-staining of DOX and TUNEL [3]
1 | COc1cccc2c1C(=O)c1c(O)c3c(c(O)c1C2=O)C[C@@](O)(C(=O)CO)C[C@@H]3O[C@H]1C[C@H](N)[C@H](O)[C@H](C)O1.Cl [free DOX, doxorubicin hydrochloride] | did not show any noticeable signs of tissue or cellular damage | induced myocardial damage | 10-20% | ~100 | cytotoxicity was similar for both free DOX and DOX-hyd-BSA NPs | 73 | contained staining of Annexin-V-FITC, and less staining of 7AAD |  |  |  | 
2 | DOX-ab-BSA NPs | did not show any noticeable signs of tissue or cellular damage |  |  |  | more efficient compared to that of DOX-ab-BSA NPs | 20 | did not induce cell apoptosis | no aggregation (diameter change) was observed | 10-20% | did not show the absorption of DOX in their supernatants | a few cells possessed TUNEL signal
